Measured values published in patent US11905274B2, “Receptor inhibitors, pharmaceutical compositions comprising the same and use thereof” (BEIJING TIDE PHARMACEUTICAL CO., LTD., priority 2018, dated 2024).

Target: AT2 Receptor (AT2R) (Homo sapiens (Human), UniProt P50052)
Assay: Inhibitory activity on AT2 receptor (Tag-lite HTRF, Tb-labeled AT2R cells, angiotensin receptor red agonist)
Assay type: binding
Conditions: 1 h at room temperature

Chain of AT2 Receptor (AT2R) (P50052 whole entry): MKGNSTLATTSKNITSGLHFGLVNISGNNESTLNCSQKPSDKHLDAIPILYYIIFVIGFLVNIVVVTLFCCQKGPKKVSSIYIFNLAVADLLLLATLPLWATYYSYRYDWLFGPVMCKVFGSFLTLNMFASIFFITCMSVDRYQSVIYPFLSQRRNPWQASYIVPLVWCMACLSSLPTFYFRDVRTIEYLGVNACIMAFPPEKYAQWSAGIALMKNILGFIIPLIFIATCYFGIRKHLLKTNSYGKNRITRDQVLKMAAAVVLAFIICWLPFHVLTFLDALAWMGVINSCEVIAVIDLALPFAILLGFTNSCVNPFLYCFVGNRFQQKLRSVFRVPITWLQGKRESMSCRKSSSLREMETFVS

Compound | IC50
O=C(O)[C@@H]1CN(C(=O)C(c2ccccc2)c2ccccc2)CCN1C(=O)N1c2ccccc2Sc2ccccc21 [Compound C21, (S)-4-(2,2-diphenylacetyl)-1-(10H-phenothiazine-10-carbonyl)piperazine-2-carboxylic acid] | 190 nM
O=C(N1CCN(C(=O)N2c3ccccc3C=Cc3ccccc32)[C@H](c2nnn[nH]2)C1)N(c1ccccc1)c1ccccc1 [Compound C31, (S)-4-(5H-dibenzo[b,f]azepine-5-carbonyl)-N,N-diphenyl-3-(1H-tetrazol-5-yl)piperazine-1-carboxamide] | 219 nM
O=C1Nc2ccccc2N(C(=O)N2CCN(C(=O)N(c3ccccc3)c3ccccc3)C[C@H]2C(=O)O)c2ccccc21 [Compound C53, (S)-4-(diphenylcarbamoyl)-1-(11-oxo-10,11-dihydro-5H-dibenzo[b,e][1,4]diazepine-5-carbonyl)piperazine-2-carboxylic acid] | 1340 nM
Cc1ccccc1N(C(=O)N1CCN(C(=O)N2c3ccccc3C=Cc3ccccc32)[C@H](C(=O)O)C1)c1ccccc1 [Compound C59, (S)-1-(5H-dibenzo[b,f]azepine-5-carbonyl)-4-(phenyl(orthomethylphenyl)carbamoyl) piperazine-2-carb oxylic acid] | 67.9 nM
O=C(O)[C@@H]1CN(C(=O)N2c3ccccc3CCc3ccccc32)CCN1C(=O)N1c2ccccc2CCc2ccccc21 [Compound C76, (S)-1,4-bis(10,11-dihydro-5H-dibenzo [b,f]azepine-5-carbonyl)piperazine-2-carboxylic acid] | 156 nM
CCN(Cc1ccccc1)C(=O)N1CCN(C(=O)N2c3ccccc3CC(=O)c3ccccc32)[C@H](C(=O)O)C1 [Compound C78, (S)-4-(benzyl(ethyl)carbamoyl)-1-(10-oxo-10,11-dihydro-5H-dibenzo [b,f]azepine-5-carbonyl) piperazine-2-carboxylic acid] | 88.2 nM
CCN(Cc1ccsc1)C(=O)N1CCN(C(=O)N2c3ccccc3CC(=O)c3ccccc32)[C@H](C(=O)O)C1 [Compound C79, (S)-4-(ethyl (thiophene-3-ylmethyl)carbamoyl)-1-(10-oxo-10,ll-dihydro-5H-dibenzo[b,f]azepine-5-carbonyl) piperazine-2-carboxylic acid] | 460 nM
O=C(O)[C@@H]1CN(C(=O)C2(c3ccccc3)CCCC2)CCN1C(=O)N(c1ccccc1)c1ccccc1 [Compound C83, (S)-1-(diphenylcarbamoyl)-4-(1-phenylcyclopentanecarbonyl) piperazine-2-carboxylic acid] | 6.35 nM
O=C(O)[C@@H]1CN(C(=O)N(c2ccccc2)c2ccccc2)CCN1C(=O)C1(O)c2ccccc2-c2ccccc21 [Compound C85, (S)-4-(diphenylcarbamoyl)-1-(9-hydroxy-9H-fluorene-9-carbonyl)piperazine-2-carboxylic acid] | 461 nM
O=C(O)[C@@H]1CN(C(=O)OCc2ccccc2)CCN1C(=O)C1(c2ccccc2)CCCCC1 [Compound C86, (S)-4-((benzyloxy)carbonyl)-1-(1-phenylcyclohexanecarbonyl) piperazine-2-carboxylic acid] | 504 nM
CN(Cc1ccccc1)C(=O)N1CCN(C(=O)C2(c3ccccc3)CCCCC2)[C@H](C(=O)O)C1 [Compound C87, (S)-4-(benzyl(methyl)carbamoyl)-1-(1-phenylcyclohexanecarbonyl) piperazine-2-carboxylic acid] | 389 nM
CN(Cc1ccccc1)C(=O)N1CCN(C(=O)N2c3ccccc3C=Cc3ccccc32)[C@H](C(=O)O)C1 [Compound C88, (S)-4-(benzyl(methyl)carbamoyl)-1-(5H-dibenzo[b,f]azepine-5-carbonyl) piperazine-2-carboxylic acid] | 387 nM
O=C1Cc2ccccc2N(C(=O)N2CCN(C(=O)N(c3ccccc3F)c3ccccc3F)C[C@H]2C(=O)O)c2ccccc21 [Compound C91, (S)-4-(bis(2-fluophenyl)carbamoyl)-1-(10-oxo-10,11-dihydro-5H-dibenzo [b,f]azepine-5-carbonyl)piperazine-2-carboxylic acid] | 30.7 nM
